Experimental data taken from ChEMBL document CHEMBL4840347, “Design, synthesis, and biological evaluation of novel somatostatin receptor subtype-2 agonists: Optimization for potency and risk mitigation of hERG and phospholipidosis” (Bioorg Med Chem, 2021).

How the values were obtained:
[1] = Cmax in rat at 3 mg/kg, po; format: ADME, organism-based; parameters: route oral, dose 3 mg/kg; settings: in vivo
[2] = Tmax in rat at 3 mg/kg, po; format: ADME, organism-based; settings: in vivo
[3] = AUC (0 to 24 hrs) in rat at 1 mg/kg, iv; format: ADME, organism-based; parameters: time < 24 hr, route intravenous, dose 1 mg/kg; settings: in vivo
[4] = AUC (0 to 24 hrs) in rat at 3 mg/kg, po; format: ADME, organism-based; parameters: time < 24 hr, route oral, dose 3 mg/kg; settings: in vivo
[5] = Half life in rat at 1 mg/kg, iv; format: ADME, organism-based; settings: in vivo
[6] = Half life in rat at 3 mg/kg, po; format: ADME, organism-based; settings: in vivo
[7] = Total clearance in rat at 1 mg/kg, iv; format: ADME, organism-based; settings: in vivo
[8] = Volume of distribution in rat at 1 mg/kg, iv; format: ADME, organism-based; settings: in vivo, read-out: Vdss
[9] = Half life in rat liver microsomes measured up to 60 mins in presence of NADPH by LC-MS/MS analysis; format: ADME, Microsome
[10] = Permeability of compound by PAMPA assay; format: ADME; settings: read-out: permeability
[11] = Tmax in rat at 10 mg/kg, po; format: ADME, organism-based; settings: in vivo
[12] = AUC (0 to 24 hrs) in rat at 10 mg/kg, po; format: ADME, organism-based; parameters: time < 24 hr, route oral, dose 10 mg/kg; settings: in vivo
[13] = Half life in rat at 10 mg/kg, po; format: ADME, organism-based; settings: in vivo
[14] = Oral bioavailability in rat at 10 mg/kg; format: ADME, organism-based; settings: in vivo
[15] = Oral bioavailability in rat at 3 mg/kg; format: ADME, organism-based; settings: in vivo

Compound	Cmax [1]	Tmax [2]	AUC ([3]; 24 h)	AUC(0-t) at 24 h [4]	half-life [5]	half-life [6]	clearance [7]	Vd [8]	half-life [9]	Papp [10]	Tmax [11]	AUC [12]	half-life [13]	F [14]	AUC(0-t) at 24 h [3]	bioavailability [15]
COc1cc(OC)cc(-c2cncc(-c3nc4cc(C)ccc4[nH]3)c2N2CCC(N)CC2)c1	56.6 ng/mL	0.5 h	686 ng·h/mL	291 ng·h/mL	5.8 h	6.5 h	25.1 mL/min/kg	8.23 L/kg	> 3.33 h	0.71 ×10⁻⁶ cm/s	0.5 h	291 ng·h/mL	6.5 h	42%		
Cc1cc(C(=O)Nc2cncc(-c3cc(Cl)cc(Cl)c3)c2N2CCC(N)CC2)n(C)n1	32.1 ng/mL	2.3 h		271 ng·h/mL	6.1 h	5.6 h	60.7 mL/min/kg	23.2 L/kg	> 3.33 h	41 ×10⁻⁶ cm/s					264 ng·h/mL	35.5%
